In article PMC4546402, “Structural Model of the Bilitranslocase Transmembrane Domain Supported by NMR and FRET Data” (PLoS ONE, 2015):
Residues, ends and D or L forms follow the SMILES beside them. No end group written: not given here.

How the values were obtained:
[1] = target: TM2:TM2; test: FRET titration of Atto488/Atto594-labelled peptides in SDS micelles, TM2:TM2 pair; assay type: binding; details: Atto488 donor/Atto594 acceptor, SDS micelle, TM2 with TM2, ratio of donor emission at 523 nm to acceptor emission at 627 nm, read-out: dissociation constant Kd
[2] = target: TM3:TM3; test: FRET titration of Atto488/Atto594-labelled peptides in SDS micelles, TM3:TM3 pair; assay type: binding; details: Atto488 donor/Atto594 acceptor, SDS micelle, TM3 with TM3, ratio of donor emission at 523 nm to acceptor emission at 627 nm, read-out: dissociation constant Kd
[3] = test system: bilitranslocase (BTL); details: ref [10]; cited from earlier work

CC[C@H](C)[C@H](NC(=O)[C@H](C)NC(=O)[C@H](CCCCN)NC(=O)[C@H](CS)NC(=O)[C@H](CC(C)C)NC(=O)CNC(=O)[C@H](CO)NC(=O)[C@@H](NC(=O)CNC(=O)[C@H](C)NC(=O)[C@H](CO)NC(=O)[C@H](Cc1ccccc1)NC(=O)[C@@H]1CCCN1C(=O)[C@H](CO)NC(=O)[C@H](CCC(N)=O)NC(=O)[C@H](CC(C)C)NC(=O)[C@@H](NC(=O)[C@H](C)NC(=O)[C@@H](NC(=O)[C@H](Cc1ccccc1)NC(=O)[C@H](CC(C)C)NC(=O)[C@H](CS)NC(=O)[C@H](Cc1ccccc1)NC(=O)[C@H](CO)NC(=O)[C@@H](N)CO)C(C)C)[C@@H](C)O)C(C)C)C(=O)N[C@@H](CC(C)C)C(=O)N[C@@H](CC(C)C)C(=O)N[C@@H](CCCCN)C(=O)N[C@@H](CCCCN)C(=O)N[C@@H](CCCCN)C(=O)N[C@@H](CCCCN)C(=O)O [TM2:TM2] (H-SSFCLFVATLQSPFSAGVSGLCKAILLKKKK-OH)
Kd [1]: 71.9 µM

GSVQCAGLISLPIAIEFTYKKKK [TM3:TM3]
Kd [2]: 191 µM

C=CC1=C(C)/C(=C/c2[nH]c(Cc3[nH]c(/C=C4\NC(=O)C(C)=C4C=C)c(C)c3CCC(=O)O)c(CCC(=O)O)c2C)NC1=O [bilirubin]
allosteric effect on BTL [3]: positive allosteric effectors, inducing the BTL into its high-affinity state | effect on conversion between the two metastable BTL conformers [3]: accelerated

O=C(O)c1cccnc1 [nicotinic acid]
allosteric effect on BTL [3]: positive allosteric effectors, inducing the BTL into its high-affinity state
